Experimental data reported in US9453056B2, “Nucleic acid construct comprising nucleic acid derived from genome of hepatitis C virus of genotype 3a” (priority 2011, dated 2016).

How the values were obtained:
[1] = tested on: JFH-1 subgenomic replicon-replicating cells; assay: Effect of antiviral agents on replicon RNA replication in JFH-1 subgenomic replicon-replicating cells (quantification of replicon RNA copy number); format: cell-based, hepatitis C virus of genotype 2a (JFH-1 strain); conditions: inhibitor for 3 days, relative to no inhibitor (100%)
Experimental: (§1) With the use of the S310A subgenomic replicon-replicating cells of the established 10 clones (Clone Nos. 1 to 10), the copy number of intracellular HCV subgenomic replicon RNA was quantified. The quantification of copy number of HCV subgenomic replicon RNA was carried out in accordance with the technique described in Takeuchi et al. (Gastroenterology, 1999, Vol. 116, pp. 636-642) and Kato et al. (Gastroenterology, 2003, Vol. 125, pp. 1808-1817).
(§2) This technique is a detection system using TaqMan probe method (PerkinElmer Inc., Applied Biosystems Inc.). Specifically, total RNA was first extracted from the S310A subgenomic replicon-replicating cells in accordance with a conventional technique. Subsequently, cDNA was synthesized from total RNA using rTth DNA polymerase, and the synthesized cDNA template was amplified via PCR using the primers: 5′-CGGGAGAGCCATAGTGG-3′ (SEQ ID NO: 24) and 5′-AGTACCACAAGGCCTTTCG-3′ (SEQ ID NO: 25). At this time, a probe having the nucleotide sequence 5′-[…]-3′ (SEQ ID NO: 26) to which a fluorescent dye, 6′-carboxy-fluorescein (FAM), had been bound at the 5′ terminus and a quencher, 6′-carboxytetramethyl-rhodamine (TAMRA), had been bound at the 3′ terminus was added. In the presence of such probe, the probe that had hybridized to the template cDNA is degraded because of 5′ exonuclease activity of the Taq polymerase during the process of amplification, the fluorescent dye is released from the probe, suppression by the quencher is released, thereby emitting fluorescence. Thus, such fluorescence was detected with ABI Prism 7700 (ParkinElmer Inc., Applied Biosystems Inc.) to quantify the copy number of HCV subgenomic replicon RNA.
As a control for comparison, the cells into which HCV subgenomic replicon RNA of the JFH-1 strain of genotype 2a had been introduced (the JFH-1 subgenomic replicon-replicating cells) were used. The JFH-1 strain HCV subgenomic replicon RNA expression vector (comprising the 5′ untranslated region (5′ UTR), the sequence of 57 nucleotides at the 5′ terminus of the Core protein coding region, the neomycin resistance gene, the EMCV IRES sequence, the nucleotide sequences encoding the NS3 protein, the NS4A protein, the NS4B protein, the NS5A protein and the NS5B protein, and the 3′ untranslated region (3′ UTR) of the HCV JFH-1 strain in this order from the 5′ to 3′ direction) was constructed and HCV subgenomic replicon RNA was produced in accordance with the techniques described in Kato et al. (Gastroenterology, 2003, Vol. 125, pp. 1808-1817) and International Publication No. WO 04/104198. Introduction thereof into the Huh cells and quantification of the copy number were carried out in the manner as described above. […]

[2] = tested on: S310A subgenomic replicon-replicating cells (clones); assay: Effect of antiviral agents on replicon RNA replication in S310A subgenomic replicon-replicating cells (quantification of replicon RNA copy number); format: cell-based, hepatitis C virus of genotype 3a (S310A strain); conditions: S310A subgenomic replicon-replicating cell clones 6, 9 and 10; inhibitor for 3 days; relative to no inhibitor (100%)
Experimental: as §1, §2
The S310A subgenomic replicon-replicating cells (clones) and the JFH-1 subgenomic replicon-replicating cells were seeded on 24-well plates at a density of 5×10^4 cells/well, interferon-α (IFN-α), NS3 protease inhibitors (VX-950 (telaprevir) (Lin et al, Journal of Biological Chemistry, 2004, Vol. 279, pp. 17508-17514) and BILN-2061 (Daniel et al, Nature, 2003, Vol. 426, pp. 186-189)), and NS5B polymerase inhibitors JTK-109 (Hirashima et al, Journal of Medicinal Chemistry, 2006, Vol. 49, pp. 4721-4736) and PSI-6130 (Clark et al, Journal of Medicinal Chemistry, 2005, Vol. 48, pp. 5504-5508) were added to the wells on the following day, and the reaction was allowed to proceed for 3 days. Thereafter, the cells were recovered, total RNAs were extracted therefrom, and the copy number of HCV subgenomic replicon RNA in the cells was quantified in the same manner as in Example 4.
In each figure, the horizontal axis represents the concentration of an inhibitor added. The vertical axis represents change ratio of HCV RNA levels, which is the percentage (%) of the amount of subgenomic replicon RNA per μg of total RNA from cells when an inhibitor was added, relative to the amount of subgenomic replicon RNA per μg of total RNA from cells when no inhibitor was added (0 IU or 0 M) (defined as 100%). In the Figures, the leftmost bar (white) represents the results for the JFH-1 subgenomic replicon-replicating cells, the second bar from the left (light gray) represents the results for the S310A subgenomic replicon-replicating cell clone 6, the third bar from the left (black) represents the results for the S310A subgenomic replicon-replicating cell clone 9, and the rightmost bar (dark gray) represents the results for the S310A subgenomic replicon-replicating cell clone 10 at each inhibitor concentration.

[3] = tested on: HCV genotypes 1 to 6 except for genotype 3a; conditions: Reesink et al., Gastroenterology, 2010; cited from earlier work
HCV genotype 3a = conditions: Reesink et al., Gastroenterology, 2010; cited from earlier work
HCV genotype 2a or 3a = conditions: compared with genotype 1b; Mori et al., 1992; cited from earlier work
HCV genotype 1b = conditions: Mori et al., 1992; cited from earlier work

Row | Compound | replication of the JFH-1 subgenomic replicon RNA (change ratio of HCV RNA levels) [1] | replication of the S310A subgenomic replicon RNAs (change ratio of HCV RNA levels) [2] | other results
1 | COc1ccc2c(O[C@@H]3C[C@H]4C(=O)N[C@]5(C(=O)O)C[C@H]5/C=C\CCCCC[C@H](NC(=O)OC5CCCC5)C(=O)N4C3)cc(-c3csc(NC(C)C)n3)nc2c1 [BILN-2061] | exert inhibitory activity | did not inhibit | 
2 | O=C(O)c1ccc2c(c1)nc(-c1ccc(OCc3cc(N4CCCC4=O)ccc3-c3ccc(Cl)cc3)cc1F)n2C1CCCCC1 [JTK-109] | not to be inhibited | markedly inhibited | 
3 | C[C@@]1(F)[C@H](O)[C@@H](CO)O[C@H]1n1ccc(N)nc1=O [PSI-6130] | inhibited | inhibited | 
4 | COc1ccc2c(O[C@@H]3C[C@H]4C(=O)N[C@]5(C(=O)NS(=O)(=O)C6CC6)C[C@H]5/C=C\CCCCN(C)C(=O)[C@@H]4C3)cc(-c3nc(C(C)C)cs3)nc2c1C [TMC435] |  |  | inhibitory effects on genotypes 1 to 6 except for genotype 3a [3]: strong inhibitory effects; inhibitory effects on genotype 3a (HCV genotype 3a): weak inhibitory effects
5 | CCC[C@H](NC(=O)[C@@H]1[C@H]2CCC[C@H]2CN1C(=O)[C@@H](NC(=O)[C@@H](NC(=O)c1cnccn1)C1CCCCC1)C(C)(C)C)C(=O)C(=O)NC1CC1 [VX-950, telaprevir] |  | did not inhibit | 
6 | IFN-α | markedly inhibited | markedly inhibited | 
7 | interferon |  |  | therapeutic effect of interferon on genotype 2a or 3a (HCV genotype 2a or 3a): higher; therapeutic effect of interferon on genotype 1b (HCV genotype 1b): low
